Experimental data reported in article PMC12123601, “Light-Induced, Lysine-Targeting Irreversible Covalent Inhibition of the Human Oxygen Sensing Hydroxylase Factor Inhibiting HIF (FIH)” (Journal of the American Chemical Society, 2025).
Like-named read-outs stand apart in the source and are kept apart here.

Molecular target: T1, FIH^K106A (Homo sapiens, UniProt Q9NWT6, K106A)
T1 construct: encoding for full-length FIH with an N-terminal His6 tag or for FIH (K106A) with an N-terminal His6 tag; His6 (N); host or cells: Escherichia coli BL21
Assay: Affinity-based fluorescence polarization (FP) assay with the FIH K106A variant, without and with irradiation
Format: binding
Conditions: for Ki: read-out: Binding affinity to FIH^K106A: Ki
From the text: 4 (A) Light-induced click conjugation between NBA-ZG-2291 and FIH protein. (B) Light-induced binding affinity of NBA-ZG-2291 to FIH^ WT . (C) Light-induced binding affinity of NBA-ZG-2291 to FIH^ K106A . […] TEXT PRINTED IN THE PICTURE: (B) NBA-ZG-2291: Binding affinity to FIH^WT: Ki (nM): 414 ± 14 (Irradtion time (min): 0); Binding affinity to FIH^WT: Ki (nM): 74.1 ± 1.6 (Irradtion time (min): 15); Binding affinity to FIH^WT: Ki (nM): 46.7 ± 1.4 (Irradtion time (min): 30); Binding affinity to FIH^WT: Ki (nM): 33.2 ± 0.6 (Irradtion time (min): 60); Binding affinity to FIH^WT: Ki (nM): 30.2 ± 2.0 (Irradtion time (min): 90); Binding affinity to FIH^WT: Ki (nM): 32.1 ± 0.7 (Irradtion time (min): 120) | (B) Neg-1: Binding affinity to FIH^WT: Ki (nM): 423 ± 7 (Irradtion time (min): 0); Binding affinity to FIH^WT: Ki (nM): 408 ± 30 (Irradtion time (min): 15); Binding affinity to FIH^WT: Ki (nM): 459 ± 32 (Irradtion time (min): 30); Binding affinity to FIH^WT: Ki (nM): 427 ± 17 (Irradtion time (min): 60); Binding affinity to FIH^WT: Ki (nM): 396 ± 29 (Irradtion time (min): 90); Binding affinity to FIH^WT: Ki (nM): 428 ± 15 (Irradtion time (min): 120) | (B) Neg-2: Binding affinity to FIH^WT: Ki (nM): 742 ± 65 (Irradtion time (min): 0); Binding affinity to FIH^WT: Ki (nM): 799 ± 69 (Irradtion time (min): 15); Binding affinity to FIH^WT: Ki (nM): 758 ± 13 (Irradtion time (min): 30); Binding affinity to FIH^WT: Ki (nM): 744 ± 30 (Irradtion time (min): 60); Binding affinity to FIH^WT: Ki (nM): 788 ± 36 (Irradtion time (min): 90); Binding affinity to FIH^WT: Ki (nM): 786 ± 35 (Irradtion time (min): 120) | (C) NBA-ZG-2291: Binding affinity to FIH^K106A: Ki (nM): 442 ± 12 (Irradtion time (min): 0); Binding affinity to FIH^K106A: Ki (nM): 427 ± 22 (Irradtion time (min): 15); Binding affinity to FIH^K106A: Ki (nM): 426 ± 7 (Irradtion time (min): 30); Binding affinity to FIH^K106A: Ki (nM): 420 ± 11 (Irradtion time (min): 60); Binding affinity to FIH^K106A: Ki (nM): 418 ± 5 (Irradtion time (min): 90); Binding affinity to FIH^K106A: Ki (nM): 424 ± 12 (Irradtion time (min): 120) | (C) Neg-1: Binding affinity to FIH^K106A: Ki (nM): 271 ± 14 (Irradtion time (min): 0); Binding affinity to FIH^K106A: Ki (nM): 275 ± 15 (Irradtion time (min): 15); Binding affinity to FIH^K106A: Ki (nM): 268 ± 25 (Irradtion time (min): 30); Binding affinity to FIH^K106A: Ki (nM): 266 ± 22 (Irradtion time (min): 60); Binding affinity to FIH^K106A: Ki (nM): 264 ± 41 (Irradtion time (min): 90); Binding affinity to FIH^K106A: Ki (nM): 270 ± 3 (Irradtion time (min): 120) | (C) Neg-2: Binding affinity to FIH^K106A: Ki (nM): 567 ± 37 (Irradtion time (min): 0); Binding affinity to FIH^K106A: Ki (nM): 548 ± 61 (Irradtion time (min): 15); Binding affinity to FIH^K106A: Ki (nM): 521 ± 50 (Irradtion time (min): 30); Binding affinity to FIH^K106A: Ki (nM): 627 ± 17 (Irradtion time (min): 60); Binding affinity to FIH^K106A: Ki (nM): 565 ± 10 (Irradtion time (min): 90); Binding affinity to FIH^K106A: Ki (nM): 552 ± 38 (Irradtion time (min): 120) […]
To further verify the covalent binding between NBA-ZG-2291 and Lys106, the FIH^ K106A variant was produced and purified.
3. Experimental procedures
3.1 Fluorescence polarization (FP) assays1 with FIHWT and FIHK106A pET28a vectors encoding for full-length FIH with an N-terminal His6 tag or for FIH (K106A) with an N-terminal His6 tag were purchased from Nanjing Zoonbio Biotechnology. Both the FIHWT and FIHK106A protein were expressed from the respective plasmid in Escherichia coli BL21 at 20 °C for 16 h. E. coli cells were lysed and the lysate were clarified by centrifugation. His6-tagged FIHWT or FIHK106A was purified on a HisTrap affinity column (GE Healthcare) by elution with an imidazole gradient. The final purified proteins were stored in PBS buffer.
FP assays were carried out using 384 -well plates (#3575, Corning); the polarization signal was measured using a SPARK Multi-Mode Microplate Reader (Tecan). […]

T1 sequence (Q9NWT6 whole entry K106A): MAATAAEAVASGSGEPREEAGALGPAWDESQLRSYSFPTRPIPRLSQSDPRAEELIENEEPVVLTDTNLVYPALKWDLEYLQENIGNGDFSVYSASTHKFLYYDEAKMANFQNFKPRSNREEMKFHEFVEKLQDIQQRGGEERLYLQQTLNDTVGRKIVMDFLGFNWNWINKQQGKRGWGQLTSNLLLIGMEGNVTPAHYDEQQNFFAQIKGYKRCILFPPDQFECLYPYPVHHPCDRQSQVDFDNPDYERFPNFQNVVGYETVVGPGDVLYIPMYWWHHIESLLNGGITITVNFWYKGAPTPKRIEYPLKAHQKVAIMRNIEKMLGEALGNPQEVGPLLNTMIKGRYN

Effect of irradiation time on binding affinity for the FIH^K106A variant (FP assay, varying irradiation times): remained unchanged | Ki (irradiation time 0 min): 442 ± 12 nM | Ki (irradiation time 15 min): 427 ± 22 nM | Ki (irradiation time 30 min): 426 ± 7 nM | Ki (irradiation time 60 min): 420 ± 11 nM | Ki (irradiation time 90 min): 418 ± 5 nM | Ki (irradiation time 120 min): 424 ± 12 nM
Structure (SMILES): O=C(O)CNC(=O)c1ncc(-c2cc(-c3ccc(CO)c([N+](=O)[O-])c3)no2)cc1O [NBA-ZG-2291]
